From ChEMBL document CHEMBL3351527, “Multitarget drug design strategy: quinone-tacrine hybrids designed to block amyloid-β aggregation and to exert anticholinesterase and antioxidant effects” (J Med Chem, 2014)
Active and inactive are the calls of the source. The rule behind the calls is not given here.

Legend:
Cholinesterase = Cholinesterase (Homo sapiens, UniProt P06276)
Description: Inhibition of human plasmatic BChE after 5 mins by Ellman method

[1] = Cytotoxicity against mouse Neuro2a cells assessed as reduction in cell viability after 24 hrs by MTT assay; format: cell-based; conditions: n2a
Acetylcholinesterase = Acetylcholinesterase (Homo sapiens, UniProt P22303)
Chain of Acetylcholinesterase (P22303 whole entry): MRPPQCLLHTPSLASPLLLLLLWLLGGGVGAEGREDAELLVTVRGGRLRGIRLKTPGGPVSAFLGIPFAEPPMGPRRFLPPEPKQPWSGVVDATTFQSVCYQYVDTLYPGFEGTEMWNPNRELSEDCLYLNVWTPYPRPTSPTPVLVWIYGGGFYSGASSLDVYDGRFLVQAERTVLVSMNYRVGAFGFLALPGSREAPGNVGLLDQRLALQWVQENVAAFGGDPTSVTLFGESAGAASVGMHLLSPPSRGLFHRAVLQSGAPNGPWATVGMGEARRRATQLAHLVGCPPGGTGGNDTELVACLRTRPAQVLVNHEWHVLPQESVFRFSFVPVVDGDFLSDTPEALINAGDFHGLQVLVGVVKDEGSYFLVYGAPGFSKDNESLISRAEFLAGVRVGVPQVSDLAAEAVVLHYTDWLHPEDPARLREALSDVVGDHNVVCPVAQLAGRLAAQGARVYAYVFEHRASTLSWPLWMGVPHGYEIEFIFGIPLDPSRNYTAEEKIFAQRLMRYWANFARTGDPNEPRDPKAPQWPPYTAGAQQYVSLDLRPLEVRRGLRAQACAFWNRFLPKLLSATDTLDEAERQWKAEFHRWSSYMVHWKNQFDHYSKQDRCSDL
Description: Inhibition of human recombinant AChE after 5 mins by Ellman method

[2] = Cytotoxicity against rat CGN cells assessed as reduction in cell viability after 24 hrs by MTT assay; format: cell-based
[3] = Cytotoxicity against mouse Neuro2a cells assessed as cell viability at 12.5 uM after 24 hrs by MTT assay relative to control; format: cell-based, N2a; conditions: read-out: Activity
Rattus norvegicus [4] = test: Ex vivo inhibition of AChE in Wistar rat cerebellum at 10 or 50 umol/kg, ip measured 1 hr post dose by colorimetric method; format: functional, organism-based
T67 [5] = test: Antioxidant activity in tert-butyl hydroperoxide-stimulated human T67 cells assessed as reduction in intracellular ROS production at 10 uM after 24 hrs by spectrophotometry in presence of sulforaphane; format: functional, cell-based
N2a = test: Neuroprotective effect in amyloid beta-stimulated mouse Neuro2a cells assessed as increase in cell viability at 12.5 uM after 24 hrs by MTT assay; format: functional, cell-based
Rattus norvegicus [6] = test: Ex vivo inhibition of AChE in ip dosed Wistar rat telencephalon measured 1 hr post dose by colorimetric method; format: functional, organism-based
T67 [7] = test: Antioxidant activity in tert-butyl hydroperoxide-stimulated human T67 cells assessed as reduction in intracellular ROS production at 10 uM after 24 hrs by spectrophotometry; format: functional, cell-based
[8] = Cytotoxicity against rat CGN cells assessed as cell viability at 12.5 uM after 24 hrs by MTT assay relative to control; format: cell-based; conditions: read-out: Activity
HepG2 = test: Hepatotoxicity in human HepG2 cells assessed as reduction in cell viability at 12.5 to 50 uM after 24 hrs by MTT assay; format: toxicity, cell-based; conditions: hepg2, 24 h

Chain of Cholinesterase (P06276 whole entry): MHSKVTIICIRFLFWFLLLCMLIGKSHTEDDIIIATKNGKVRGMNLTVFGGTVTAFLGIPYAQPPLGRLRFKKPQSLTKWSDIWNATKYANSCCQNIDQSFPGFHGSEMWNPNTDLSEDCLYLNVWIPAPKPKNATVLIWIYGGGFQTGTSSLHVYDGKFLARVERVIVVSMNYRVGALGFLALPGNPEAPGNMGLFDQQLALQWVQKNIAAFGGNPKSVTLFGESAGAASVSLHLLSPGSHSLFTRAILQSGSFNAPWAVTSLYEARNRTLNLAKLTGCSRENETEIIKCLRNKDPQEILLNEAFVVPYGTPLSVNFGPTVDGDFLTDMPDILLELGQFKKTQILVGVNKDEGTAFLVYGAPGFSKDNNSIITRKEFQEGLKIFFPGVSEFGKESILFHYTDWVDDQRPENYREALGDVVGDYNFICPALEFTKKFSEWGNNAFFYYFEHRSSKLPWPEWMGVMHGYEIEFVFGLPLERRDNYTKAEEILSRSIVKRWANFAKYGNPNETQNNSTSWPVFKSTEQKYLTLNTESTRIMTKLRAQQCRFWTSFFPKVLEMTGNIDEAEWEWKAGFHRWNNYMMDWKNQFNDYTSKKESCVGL

| SMILES | IC50 (Cholinesterase) [nM] | Activity [1] | IC50 (Acetylcholinesterase) [nM] | Activity [2] | viability at 24 h, 12.5 µM [3] [%] | inhibition (Rattus norvegicus [4]) | Activity (T67 [5]) | Activity (N2a) | inhibition (Rattus norvegicus [6]) | Activity (T67 [7]) | viability at 24 h, 12.5 µM [8] [%] | Activity (HepG2) |
| --- | --- | --- | --- | --- | --- | --- | --- | --- | --- | --- | --- | --- |
| O=C1C(NCCCNc2c3c(nc4cc(Cl)ccc24)CCCC3)=CC(=O)c2c(O)cccc21 | 258 | Toxic | 9.24 | Toxic |  |  |  |  |  |  |  |  |
| COc1ccc2nc3c(c(NCCNC4=CC(=O)c5c(O)cccc5C4=O)c2c1)CCCC3 | 1280 | Toxic | 651 | Toxic |  |  |  |  |  |  |  |  |
| O=C1C=C(NCCNc2c3c(nc4ccccc24)CCCC3)C(=O)c2ccccc21 | 5.45 | Non-toxic | 14.3 | Toxic |  |  |  |  |  |  |  |  |
| O=C1C=C(NCCCNc2c3c(nc4ccccc24)CCCC3)C(=O)c2ccccc21 | 19.1 | Non-toxic | 53.7 | Toxic |  |  |  |  |  |  |  |  |
| COc1ccc2nc3c(c(NCCCNC4=C(Cl)C(=O)c5ccccc5C4=O)c2c1)CCCC3 | 742 | Toxic | 809 | Toxic |  |  |  |  |  |  |  |  |
| COc1ccc2nc3c(c(NCCCNC4=CC(=O)c5ccccc5C4=O)c2c1)CCCC3 | 635 | Non-toxic | 6150 | Toxic |  |  |  |  |  |  |  |  |
| O=C1C(Cl)=C(NCCCNc2c3c(nc4ccccc24)CCCC3)C(=O)c2ccccc21 | 47.8 | Toxic | 38 | Toxic |  |  |  |  |  |  |  |  |
| O=C1C(Cl)=C(NCCNc2c3c(nc4ccccc24)CCCC3)C(=O)c2ccccc21 | 96.1 | Toxic | 96.1 | Toxic |  |  |  |  |  |  |  |  |
| O=C1C(NCCCNc2c3c(nc4ccccc24)CCCC3)=CC(=O)c2c(O)cccc21 | 14.5 | Toxic | 103 | Toxic |  |  |  |  |  |  |  |  |
| O=C1C=C(NCCCNc2c3c(nc4cc(Cl)ccc24)CCCC3)C(=O)c2ccccc21 | 197 | Non-toxic | 5.4 | Toxic |  |  |  |  |  |  |  |  |
| O=C1C(NCCNc2c3c(nc4cc(Cl)ccc24)CCCC3)=CC(=O)c2c(O)cccc21 | 542 | Toxic | 0.72 | Toxic | 85.6 | inactive | Active | Active | Dose-dependent effect | inactive | 73.5 |  |
| O=C1C(Cl)=C(NCCCNc2c3c(nc4cc(Cl)ccc24)CCCC3)C(=O)c2ccccc21 | 234 | Toxic | 8.94 | Toxic |  |  |  |  |  |  |  |  |
| O=C1C(NCCNc2c3c(nc4ccccc24)CCCC3)=CC(=O)c2c(O)cccc21 | 41.4 | Toxic | 24.7 | Toxic |  |  |  |  |  |  |  |  |
| O=C1C(Cl)=C(NCCNc2c3c(nc4cc(Cl)ccc24)CCCC3)C(=O)c2ccccc21 | 287 | Toxic | 3.21 | Toxic |  |  |  |  |  |  |  |  |
| O=C1C=C(NCCNc2c3c(nc4cc(Cl)ccc24)CCCC3)C(=O)c2ccccc21 | 256 | Non-toxic | 1.93 | Toxic | 105 | inactive | Active | Active | Dose-dependent effect | inactive | 75 | Non-toxic |
| COc1ccc2nc3c(c(NCCNC4=CC(=O)c5ccccc5C4=O)c2c1)CCCC3 | 501 | Toxic | 2530 | Toxic |  |  |  |  |  |  |  |  |
| COc1ccc2nc3c(c(NCCNC4=C(Cl)C(=O)c5ccccc5C4=O)c2c1)CCCC3 | 970 | Toxic | 1370 | Toxic |  |  |  |  |  |  |  |  |
| COc1ccc2nc3c(c(NCCCNC4=CC(=O)c5c(O)cccc5C4=O)c2c1)CCCC3 | 329 | Toxic | 348 | Toxic |  |  |  |  |  |  |  |  |
